Test results from patent US9840488B2, “Carbon monoxide releasing molecules and associated methods” (Utah State University, priority 2015, dated 2017).
In brackets after ≈: the same amount, converted by molar mass. Entries after “also recorded” stand apart in the source; their conditions may differ. Like-named read-outs stand apart in the source and are kept apart here. Blank lines part the entries; values can stand above or below the molecule they belong to.

Key:
[1] = assay type: physicochemical; details: for quantum yield Φ of CO-release reaction / eq. CO released: aerobic CH3CN; for eq. CO released: average of three trials
Method: ^1H and ^13C{^1H} NMR spectra (in ppm) were collected using JEOL ECX-300 MHz spectrometer and are referenced to the residual solvent peak in CDCl3 (^1H: 7.26 (singlet) ppm; ^13C 77.16 (singlet) ppm) or DMSO-d6 (^1H: 2.50 ppm (quintet)). J values are given in Hz. IR spectra were collected using a Shimadzu FTIR-8400 as potassium bromide pellets. UV-vis spectra were recorded at ambient temperature using a Hewlett-Packard 8453A diode array spectrophotometer. Fluorescence emission spectra were collected using a Shimadzu RF-530XPC spectrometer in the range of 400-800 nm, with the excitation wavelength corresponding to the absorption maxima of the molecules. The excitation and emission slit widths were set at 1.5 nm for all molecules. Mass spectral data was collected at the Mass Spectrometry Facility, University of California, Riverside. ESI/APCI mass spectra were recorded on an Agilent LCTOF (2006) with a Windows XP based operating system. Elemental analyses were performed by Atlantic Microlab, Inc., Norcross, Ga., using a PE2400 automatic analyzer or at Robertson Microlit Laboratories, Ledgewood, N.J. using a Perkin Elmer CHN Analyzer Model 2400, Series II. […] Quantum yields were determined using potassium ferrioxalate or potassium reinekate as standards to measure photon flux.^[36] Carbon monoxide was quantified as previously described.^[37] […]
A solution of 5 in CD3CN (˜3 mM) was prepared in air under minimal red light and placed in an NMR tube. The NMR tube was then covered with foil, placed in a photo reactor, and irradiated using 419 nm lamps for 24 hours.
A solution of 5 in CD3CN (˜3 mM) was prepared under N2 in a glove box and placed in an NMR tube. The NMR tube was then placed in a photo reactor and irradiated using 419 nm lamps for 24 hours. […]

[2] = tested on: A549 human adenocarcinoma cells; test: MTT cell viability assay, A549 cells; assay type: cell-based
Method: (§1) Jurkat (JM) cells were maintained as previously described by Shorey et al.^[39] A549 human adenocarcinoma cells (ATCC, Manassas, Va.) cells were grown in DMEM/Ham's F-12 1:1 mixture medium supplemented with 10% charcoal-stripped, heat-inactivated fetal bovine serum (FBS; Caisson Laboratories, Logan, Utah) in a humidified incubator at 37° C. with 5% CO2. Cytotoxicity was determined by the colorimetric MTT [3-(4,5-dimethyl-2-thiazolyl)-2,5-diphenyl-2H-tetrazoluim bromide] assay as previously describe.^[40] Briefly, 2.1×10^3 cells/ml for A549 cells or 1×10^5 cells/ml for Jurkat cells. Test compounds were prepared in DMSO, then added to culture media for a maximum final DMSO concentration not greater than 0.1% (v/v). After addition of test compounds at concentrations ranging from 80 nM to 100 μM, cells were incubated for 24 h in the dark, then treated with MTT to assess cell viability as outlined previously.^[40] All experiments were independently replicated three times, and each experimental treatment was performed in triplicate.

Jurkat (JM) cells = test: MTT cell viability assay, Jurkat cells; assay type: cell-based, human
Method: as §1

E. coli (ATCC 25922) = test: Minimum inhibitory concentration, blue light vs dark; assay type: cell-based; design: key to Minimum inhibitory concentration (MIC): †: No inhibitory effect against bacterial strain
S. aureus (ATCC 25923) = test: as above; assay type: cell-based; design: key to Minimum inhibitory concentration (MIC): †: No inhibitory effect against bacterial strain
[3] = tested on: S. aureus (ATCC 33591-MRSA); test: as above; assay type: cell-based; design: key to Minimum inhibitory concentration (MIC): †: No inhibitory effect against bacterial strain
[4] = biological target: T1, bovine serum albumin (BSA) (Bos taurus, UniProt P02769); test: BSA binding by fluorescence quenching, competitive binding and docking
A549 cells = test: Cellular uptake by fluorescence microscopy; assay type: cell-based, human
Method: A549 cells were maintained in culture as described above, then seeded into seeded into Millicell E-Z-Slide culture chambers (EMD Millipore, Billerica, Mass.) at an initial density of 7.5×10^4 cells/cm^2 and allowed to adhere to the chamber slides for 24 hr. The cells were then treated for 1 hr with the nuclear dye Hoechst 33342 (0.5% v/v) for 10 min, followed by three washes with plain culture media to remove residual dye. All of incubation and wash steps described below were performed in the dark with minimal light exposure. A 100 mM stock solution of compound 5 was prepared in DMSO and then diluted to a working concentration of 2 mM in culture media (DMEM/Ham's F-12). The compound 5 working stock was diluted again to a final concentration of 50 μM in the culture chamber media, and the cells were incubated for 1 hr. The culture chamber was then gently washed thrice with plain culture media. Cells were fixed with a 1:10 (v/v) solution of formaldehyde fixative (Immunochemistry Technologies, Bloomington, Minn.) and culture media for 5 min, then washed twice with plain culture media. Finally, cells were imaged using a Zeiss Axio Observer inverted microscope (Carl Zeiss Microscopy, Thornwood, N.Y.) equipped with fluorescence detection. Images were acquired using a 10× objective with excitation λ of 450-490 nm (BP 470/40 filter) and emission λ of 500-550 nm (BP 525/50 filter) for detection of compound 5 in A549 cells following 30 sec, 3 min or 10 min exposure to visible light. Also, for localization of the Hoechst dye, a single fluorescence image was acquired at excitation λ at 365 nm; emission λ of 420-470 nm (BP 445/50 filter). Acquired images were universally adjusted to enhance contrast levels (same settings for all acquired images for each detection channel) using Adobe Photoshop CS6 (Adobe, San Jose, Calif.).

[5] = Solubility and solution stability
[6] = biological target: T1, bovine serum albumin (BSA); details: literature value, cited from earlier work

T1 sequence (P02769 25-607): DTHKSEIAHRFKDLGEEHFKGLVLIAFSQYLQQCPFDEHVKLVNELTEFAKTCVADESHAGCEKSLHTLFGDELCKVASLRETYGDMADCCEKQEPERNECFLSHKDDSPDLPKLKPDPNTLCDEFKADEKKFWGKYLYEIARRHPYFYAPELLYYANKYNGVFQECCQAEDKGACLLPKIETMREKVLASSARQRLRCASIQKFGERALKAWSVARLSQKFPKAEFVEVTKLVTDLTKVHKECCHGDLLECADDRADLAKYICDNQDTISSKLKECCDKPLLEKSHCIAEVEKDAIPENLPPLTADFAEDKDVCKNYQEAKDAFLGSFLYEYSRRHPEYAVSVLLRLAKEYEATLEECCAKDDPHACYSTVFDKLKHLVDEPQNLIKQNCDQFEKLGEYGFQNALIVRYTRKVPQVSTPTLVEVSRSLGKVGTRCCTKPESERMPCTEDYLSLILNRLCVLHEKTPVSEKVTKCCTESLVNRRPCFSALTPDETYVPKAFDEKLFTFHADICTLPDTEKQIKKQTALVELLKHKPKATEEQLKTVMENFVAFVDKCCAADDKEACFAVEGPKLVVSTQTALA

Molecule: O=c1c(O)c(-c2ccccc2)oc2ccccc12 [3-hydroxyflavone, reference compound]
eq. CO generated ([1]; photoinduced reaction with O2, λirr=300 nm): 0.95 eq

IC50 ([2]; Homo sapiens, 24 h in the dark, MTT): 41.5 µM
Minimum inhibitory concentration (MIC) (E. coli (ATCC 25922); Dark Conditions): †
MIC (E. coli (ATCC 25922); Escherichia coli, ATCC25922, Light Conditions (blue light)): 27.8 µg/mL (≈ 96.4 µM)
Minimum inhibitory concentration (MIC) (S. aureus (ATCC 25923); Dark Conditions): †
MIC (S. aureus (ATCC 25923); Staphylococcus aureus, ATCC25923, Light Conditions (blue light)): 39.4 µg/mL (≈ 137 µM)
Minimum inhibitory concentration (MIC) ([3]; Dark Conditions): †
MIC ([3]; Staphylococcus aureus, Light Conditions (blue light)): 55.5 µg/mL (≈ 193 µM)
dark control reaction ([1]; CD3CN in air, tube covered with foil, 419 nm lamps, 24 hours, 1H NMR): no reaction had occurred
anaerobic control reaction ([1]; CD3CN under N2, 419 nm lamps, 24 hours, 1H NMR): no reaction had occurred
decrease in the rate of light induced CO-release on binding to BSA ([1]; compound bound to BSA): two-fold
binding site on BSA ([4]; competitive binding with warfarin and ibuprofen, AutoDock Vina docking): site 1 (subdomain II A)
binding affinity to BSA ([4]; fluorescence quenching, single binding site): 3200 M⁻¹
intracellular localization (A549 cells; 1 hr incubation): localized primarily to the cytoplasm
melting point: 208 to 210 °C
solubility in aqueous DMSO ([5]; 1:1 H2O:DMSO, 0.1% DMSO/RPMI cell culture media): soluble
solubility in organic solvents ([5]; CH3CN, CH2Cl2, CHCl3, DMSO): readily soluble
solution stability in the presence of ambient O2 ([5]; acetonitrile, 1:1 DMSO:H2O, or 0.1% DMSO:cell culture media (RPMI-1640; pH=7.4), protected from light): > 2 weeks
Molecule: O=c1c(O)c(-c2ccccc2)oc2cc3ccccc3cc12 [Compound 5, 3-Hydroxy-2-phenyl-benzo[g]chromen-4-one]
toxicity by MTT cell viability assay [2]: minimal toxicity
toxicity by MTT cell viability assay (Jurkat (JM) cells): minimal toxicity
quantum yield Φ of CO-release reaction ([1]; 419 nm irradiation): 0.007(3)
eq. CO released ([1]; 419 nm irradiation): 0.96(2) eq
photoinduced CO-release reaction in other solvents ([1]; methanol and 1:1 H2O:DMSO, 1H NMR and GC head space gas analysis): same reaction occurs
cellular uptake / cell permeability (A549 cells; 50 μM, 1 hr incubation): cell permeable; also recorded: taken up by almost all cells
loss of green fluorescence in cells on exposure to visible light (A549 cells; ten minutes visible light): complete loss

Molecule: O=c1c(O)c(-c2ccc(O)c(O)c2)oc2cc(O)cc(O)c12 [quercetin]
binding affinity to BSA ([6]; unit not given): 3.65×10^7

melting point: 191 to 192 °C
Molecule: CCN(CC)c1ccc(-c2oc3cc4ccccc4cc3c(=O)c2O)cc1 [Compound 7, 2-(4-(diethylamino)phenyl)-3-hydroxy-4H-benzo[g]chromen-4-one]
quantum yield Φ of CO-release reaction ([1]; 419 nm irradiation): 0.006(1)
eq. CO released ([1]; 419 nm irradiation): 0.99(1) eq

Molecule: O=C(Oc1cc2ccccc2cc1C(=O)O)c1ccccc1 [Compound 6, 3-(benzoyloxy)-2-naphthoic acid]
toxicity by MTT cell viability assay [2]: completely non-toxic
toxicity by MTT cell viability assay (Jurkat (JM) cells): completely non-toxic

Molecule: COc1cccc2c1C(=O)c1c(O)c3c(c(O)c1C2=O)C[C@@](O)(C(=O)CO)C[C@@H]3O[C@H]1C[C@H](N)[C@H](O)[C@H](C)O1 [doxorubicin]
binding affinity to BSA [6]: 7300 M⁻¹

Molecule: 3-acetate-2-phenyl-benzo[g]chromen-4-one [Compound 12]
stability to visible light relative to 5 [1]: significantly more stable

Molecule: Oc1c(-c2ccccc2)oc2cc3ccccc3cc2c1=S [Compound 8, 3-Hydroxy-2-phenyl-4H-benzo[g]chromene-4-thione]
quantum yield Φ of CO-release reaction ([1]; 419 nm irradiation): 0.426(3)
eq. CO released ([1]; 419 nm irradiation): 1.01(1) eq

Molecule: CCN(CC)c1ccc(-c2oc3cc4ccccc4cc3c(=S)c2O)cc1 [Compound 9, 2-(4-(diethylamino)phenyl)-3-hydroxy-4H-benzo[g]chromene-4-thione]
quantum yield Φ of CO-release reaction ([1]; >546 nm irradiation): 0.20(1)
eq. CO released ([1]; >546 nm irradiation): 1.01(1) eq
